Source: patent US5821240A, “Pyrimido[5,4]-dipyrimidines, pharmaceuticals containing them, their use and processes for the preparation thereof” (Dr. Karl Thomae GmbH, priority 1996, dated 1998)

Legend:
[1] = system: F/L-HERc cells expressing human EGF-R; assay: Inhibition of EGF-dependent proliferation of F/L-HERc cells; assay type: cell-based, murine cell line; human EGF-R; conditions: EGF 20 ng/ml, 37° C., 48 hours
Source text: (§1) In this case, an interleukin-3 (IL-3)-dependent cell line of murine origin was used and was genetically modified in such a way that it expresses functional human EGF-R. Proliferation of these cells, which are called F/L-HERc, can therefore be stimulated either by murine IL-3 or by EGF (see von Ruden, T. et al. in EMBO J. 7, 2749-2756 (1988) and Pierce, J. H. et al. in Science 239, […] (1988)).
(§2) The starting material for the F/L-HERc cells was the cell line FDC-P1 whose preparation has been described by Dexter, T. M. et al. in J. Exp. Med. 152, 1036-1047 (1980). However, it is also possible as an alternative to use other growth factor-dependent cells (see, for example, Pierce, J. H. et al. in Science 239, 628-631 (1988), Shibuya, H. et al. in Cell 70, 57-67 (1992) and Alexander, W. S. et al. in EMBO J. 10, 3683-3691 (1991)). Recombinant retroviruses as described in von Ruden, T. et al., EMBO J. 7, 2749-2756 (1988) Were used for expression of the human EGF-R cDNA (see Ullrich, A. et al. in Nature 309, 418-425 (1984)), with the difference that the retroviral vector LXSN (see Miller, A. D. et al. in BioTechniques 7, 980-990 (1989)) was employed for expression of the EGF-R cDNA, and the line GP+E86 (see Markowitz, D. et al. in J. Virol. 62, 1120-1124 (1988)) was used as packaging cell.
(§3) F/L-HERc cells were cultivated in RPMI/1640 medium (BioWhittaker), supplemented with 10% fetal calf serum (FCS, Boehringer Mannheim), 2 mM glutamine (BioWhittaker), standard antibiotics and 20 ng/ml human EGF (Promega), at 37° C. and 5% CO2. To investigate the inhibitor activity of the compounds according to the invention, 1.5×10^4 cells were cultivated in the above medium (200 μl) per well in triplicates in 96-well plates, stimulating proliferation of the cells either with EGF (20 ng/ml) or with murine IL-3. The source used for IL-3 was culture supernatants from the cell line X63/0 mIL-3 (see Karasuyama, H. et al. in Eur. J. Immunol. 18, 97-104 (1988)). The compounds according to the invention were dissolved in 100% dimethyl sulphoxide (DMSO) and added in various dilutions to the cultures, with the maximum DMSO concentration being 1%. The cultures were incubated at 37° C. for 48 hours.
(§4) To determine the inhibitory activity of the compounds according to the invention, the relative cell count was measured in O.D. units using the Cell Titre 96™ AQueous Non-Radioactive Cell Proliferation Assay (Promega). The relative cell count was calculated as a percent of the control (F/L-HERc cells without inhibitor), and the concentration of active substance which inhibits the proliferation of the cells by 50% (IC50) was inferred.

[2] = system: F/L-HERc cells; assay: Inhibition of IL-3-dependent proliferation of F/L-HERc cells; assay type: cell-based; conditions: Mus musculus, murine IL-3, 37° C., 48 hours
Source text: as §1, §2, §3, §4

[3] = system: human tumour cell line KB; assay: Inhibition of EGF/TGF-alpha-stimulated KB cell proliferation ([3H]-thymidine incorporation); assay type: cell-based; conditions: TGF-alpha 10 ng/ml or EGF 20 ng/ml, serum-free, 60 hours then [3H]-thymidine 16-18 h
Method: KB cells (purchased from ATCC) were passaged in DMEM (BioWhittaker) in the presence of 10% FCS (Boehringer Mannheim), 50 μM beta-mercaptoethanol and standard antibiotics. The EGF-induced DNA synthesis was determined by measuring the incorporation of radioactively labelled thymidine as indicator of EGF/TGF-alpha-stimulated cell proliferation. To do this, the cells were washed twice and 1500 cells per well were plated out in a 96-well plate in 200 μl of IMDM (BioWhittaker) without serum in the presence of 50 μM beta-mercaptoethanol, standard antibiotics, TGF-alpha [10 ng/ml] or EGF [20 ng/ml] and of various concentrations of the substances according to the invention (triplicates, maximum DMSO concentration 1%, see proliferation t t with F/L-HERc cells). After 60 hours, [^3 H]-thymidine (0.1 μCi in 10 μl) was added for about 16-18 h.

| IC50 [3] [nM] | Compound | IC50 [1] [nM] | IC50 [2] [nM] |
| --- | --- | --- | --- |
| 100 to 1000 | NCC1CCN(c2ncc3ncnc(Nc4ccc(F)c(Cl)c4)c3n2)CC1 [1(7), 4-[(3-Chloro-4-fluorophenyl)amino]-6-[4-(aminomethyl)-1-piperidinyl]pyrimido[5,4-d]pyrimidine] | 8 | > 1000 |
| 100 to 1000 | COC(=O)N1CCC(Nc2ncc3ncnc(Nc4ccc(F)c(Cl)c4)c3n2)CC1 [1(8), 4-[(3-Chloro-4-fluorophenyl)amino]-6-[1-methoxycarbonyl-4-piperidinylamino]pyrimido[5,4-d]pyrimidine] | 3 | > 10000 |
| 100 to 1000 | Nc1c(Cl)cc(Nc2ncnc3cnc(N[C@H]4CC[C@H](C(=O)O)CC4)nc23)cc1Cl [1(16), 4-[(4-Amino-3,5-dichlorophenyl)amino]-6-[(trans-4-carboxycyclohexyl)amino]pyrimido[5,4-d]pyrimidine] | 20 | > 1000 |
| – | CN1CCC(C2CCN(c3ncc4ncnc(Nc5ccc(F)c(Cl)c5)c4n3)CC2)CC1 [1(41), 4-[(3-Chloro-4-fluorophenyl)amino]-6-[4-(1-methyl-4-piperidinyl)-1-piperidinyl]pyrimido[5,4-d]pyrimidine] | 200 | > 1000 |
| – | Fc1ccc(Nc2ncnc3cnc(NC4CCCN(Cc5ccccc5)CC4)nc23)cc1Cl (centres unmarked) [1(42), 4-[(3-Chloro-4-fluorophenyl)amino]-6-[1-benzyl-4-(1-azacycloheptyl)amino]pyrimido[5,4-d]pyrimidine] | > 100 | > 1000 |
| – | CN1CCN(C2CCC(Nc3ncc4ncnc(Nc5ccc(F)c(Cl)c5)c4n3)CC2)CC1 (centres unmarked) [1(46), 4-[(3-Chloro-4-fluorophenyl)amino]-6-[4-(1-methyl-4-piperazinyl)cyclohexylamino]pyrimido[5,4-d]pyrimidine] | 2 | > 1000 |
| – | OCc1cccc(Nc2ncnc3cnc(N[C@H]4CC[C@H](O)CC4)nc23)c1 [1(47), 4-[(3-Hydroxymethylphenyl)amino]-6-[trans-4-hydroxycyclohexylamino]pyrimido[5,4-d]pyrimidine] | > 100 | > 1000 |
| – | OC1CCN(c2ncc3ncnc(Nc4ccc(F)c(Cl)c4)c3n2)CC1 [1(48), 4-[(3-Chloro-4-fluorophenyl)amino]-6-[4-hydroxy-1-piperidinyl]pyrimido[5,4-d]pyrimidine] | 36 | > 1000 |
| – | Fc1ccc(Nc2ncnc3cnc(N4CCCCC4)nc23)cc1Cl [1(49), 4-[(3-chloro-4-fluorohenyl)amino]-6-[1-piperidinyl]pyrimido[5,4-d]pyrimidine] | > 1000 | > 1000 |
| – | N#CN1CCC(Nc2ncc3ncnc(Nc4ccc(F)c(Cl)c4)c3n2)CC1 [1(50), 4-[(3-Chloro-4-fluorophenyl)amino]-6-[(1-cyano-4-piperidinyl)amino]pyrimido[5,4-d]pyrimidine] | 3 | > 1000 |
| – | CN1CCC(CNc2ncc3ncnc(Nc4ccc(F)c(Cl)c4)c3n2)CC1 [1(51), 4-[(3-Chloro-4-fluorophenyl)amino]-6-[(1-methyl-4-piperidinyl)methylamino]pyrimido[5,4-d]pyrimidine] | 9 | > 1000 |
| – | O=C(N1CCOCC1)N1CCN(CCNc2ncc3ncnc(Nc4ccc(F)c(Cl)c4)c3n2)CC1 [1(52), 4-[(3-Chloro-4-fluorophenyl)amino]-6-[2-(4-(morpholinocarbonyl)-1-piperazinyl)ethylamino]pyrimido[5,4-d]pyrimidine] | 10 | > 1000 |
| – | Nc1ncc2ncnc(Nc3ccc(F)c(Cl)c3)c2n1 [1(53), 4-[(3-Chloro-4-fluorophenyl)amino]-6-aminopyrimido-[5,4-d]pyrimidine] | > 100 | > 1000 |
| – | NCCCCCNc1ncc2ncnc(Nc3ccc(F)c(Cl)c3)c2n1 [1(54), 4-[(3-Chloro-4-fluorophenyl)amino]-6-[5-aminopentylamino]pyrimido[5,4-d]pyrimidine] | 10 | > 1000 |
| – | Fc1ccc(Nc2ncnc3cnc(N4CCCCCC4)nc23)cc1Cl [1(55), 4-[(3-Chloro-4-fluorophenyl)amino]-6-[1-azacycloheptyl]pyrimido[5,4-d]pyrimidine] | 40 | > 1000 |
| – | NC1CCCN(c2ncc3ncnc(Nc4ccc(F)c(Cl)c4)c3n2)CC1 (centres unmarked) [1(56), 4-[(3-Chloro-4-fluorophenyl)amino]-6-[4-amino-1-azacycloheptyl]pyrimido[5,4-d]pyrimidine] | 40 | > 1000 |
| – | CC(C)(C)OC(=O)N1CCCC(Nc2ncc3ncnc(Nc4ccc(F)c(Cl)c4)c3n2)CC1 (centres unmarked) [1(57), 4-[(3-chloro-4-fluorophenyl)amino]-6-[1-tert-butyloxy-carbonyl-4-(azacycloheptyl)amino]pyrimido[5,4-d]pyrimidine] | 88 | > 10000 |
| – | Fc1ccc(Nc2ncnc3cnc(NC4CCCNCC4)nc23)cc1Cl (centres unmarked) [1(58), 4-[(3-Chloro-4-fluorophenyl)amino]-6-[4-(azacycloheptyl)amino]pyrimido[5,4-d]pyrimidine] | 4 | > 1000 |
| – | NC[C@H]1CC[C@H](Nc2ncc3ncnc(Nc4ccc(F)c(Cl)c4)c3n2)CC1 [1(59)] | 1 | > 1000 |
| – | O=C(N[C@H]1CC[C@H](CNc2ncc3ncnc(Nc4ccc(F)c(Cl)c4)c3n2)CC1)OCc1ccccc1 [1(60), 4-[(3-Chloro-4-fluorophenyl)amino]-6-[trans-4-(benzyloxycarbonylamino)cyclohexylmethylamino]pyrimido[5,4-d]pyrimidine] | 120 | > 10000 |
| – | NCC1CCCN(c2ncc3ncnc(Nc4ccc(F)c(Cl)c4)c3n2)C1 (centres unmarked) [1(61), 4-[(3-Chloro-4-fluorophenyl)amino]-6-[3-aminomethyl-1-piperidinyl]pyrimido[5,4-d]pyrimidine] | 50 | > 1000 |
| – | Nc1cc(Cl)c(Nc2ncnc3cnc(N[C@H]4CC[C@H](O)CC4)nc23)cc1Cl [1(62), 4-[(4-Amino-2,5-dichlorophenyl)amino]-6-[trans-4-hydroxycyclohexylamino]pyrimido[5,4-d]pyrimidine] | 4 | > 10000 |
| – | O[C@H]1CC[C@H](Nc2ncc3ncnc(Nc4ccc(-c5ccccc5)cc4)c3n2)CC1 [1(63), 4-[4-Biphenylylamino]-6-[trans-4-hydroxycyclohexylamino]pyrimido[5,4-d]pyrimidine] | > 10000 | > 10000 |
| – | O[C@H]1CC[C@H](Nc2ncc3ncnc(Nc4cccc(Oc5ccccc5)c4)c3n2)CC1 [1(64)] | 150 | > 10000 |
| – | COC(=O)[C@H]1CC[C@H](Nc2ncc3ncnc(Nc4ccc(F)c(Cl)c4)c3n2)CC1 [Example 1, 4-[(3-Chloro-4-fluorophenyl)amino]-6-[(trans-4-methoxycarbonylcyclohexyl)amino]pyrimido[5,4-d]pyrimidine] | 200 | > 10000 |

| Compound | IC50 [3] [nM] | IC50 [1] [nM] | IC50 [2] [nM] |
| --- | --- | --- | --- |
| Fc1ccc(Nc2ncnc3cnc(NC4CN5CCC4CC5)nc23)cc1Cl (racemic) [1(4), (3'RS)-4-[(3-Chloro-4-fluorophenyl)amino]-6-[(3'-quinuclidinyl)amino]pyrimido[5,4-d]pyrimidine] | 100 to 1000 | 15 | > 10000 |
